According to US4136179A, “2,2-Dimethyl-19-nor-steroids” (Roussel Uclaf, priority 1976, dated 1979):

Test system: aldosterone monoacetate
Test: Anti-aldosterone activity in surrenalectomized rats (urinary sodium/potassium)
Assay type: in vivo, rat (male, Sprague-Dawley)
Conditions: for % inhibition of the activity of 1 μg/kg of aldosterone monoacetate: surrenalectomized male Sprague-Dawley rats, aldosterone 1 μg/kg s.c., 4 hours urine, sodium and potassium; for antialdosterone activity (in words): orally administered
Method: Male rats of the Sprague-Dawley strain weighing about 180 g were surrenalectomized and at that moment, the rats received with their drinking water physiological serum. On the 4th day, the animals were fasted for 16 hours and then received as drinking water water containing 5% glucose. The test product was administered orally at the end of 16 hours in the form of a suspension in 0.25% carboxymethylcellulose. One hour after the administration of the product, they received intraperitoneally a surcharge of aqueous sodium chloride at a rate of 5 ml per 100 g of body weight of […] physiological serum and subcutaneously 1 μg/kg of an alcoholic solution of 2.5% of aldosterone acetate. The animals were placed in diuresis cages without food or drink for 4 hours. At the end of this time, a miction was forced by pressure on the bladder and the volume of urine was adjusted to 50 ml and the amount of sodium and potassium was determined with an autoanalyser. The results expressed as the percentage of inhibition of the activity of 1 μg/kg of aldosterone monoacetate injected subcutaneously with the ratio of [formula] in the surrenalectomized rats is reported in the following Table.

CC1(C)CC2C(=CC1=O)CCC1C2CCC2(C)C(C(=O)CO)CCC12 (stereo not shown) [Example 3, 2,2-dimethyl-19-nor-Δ^4-pregnene-21-ol-3,20-dione]
% inhibition of the activity of 1 μg/kg of aldosterone monoacetate (oral dose 5 mg/kg): 50% | antialdosterone activity (in words): interesting antialdosterone activity

CC1(C)CC2=C3C=CC4(C)C(C(=O)CO)CCC4C3CCC2=CC1=O (stereo not shown) [Example 9, 2,2-dimethyl-19-nor-Δ^4,9,11-pregnatriene-21-ol-3,20-dione]
% inhibition of the activity of 1 μg/kg of aldosterone monoacetate (oral dose 10 mg/kg): 91% | antialdosterone activity (in words): interesting antialdosterone activity
